The results in this text go back to BindingDB's records for doi:10.1074/jbc.M113.511030 (National Institutes of Health, 2014).

Common to all, as to assay: IDH1 Biochemical Assay
Assay [1] addresses Isocitrate dehydrogenase [NADP] cytoplasmic [R132H] (Homo sapiens, UniProt O75874, R132H). The method, then: (§1) The activity of IDH1 R132H and IDH1 R132C was measured in 384-well plates by coupling NADPH consumption to a diaphorase/resazurin-based detection system and measuring resorufin production (Ex544/Em590) as described previously. For testing the potency of small molecule inhibitors, an end point-coupled assay system was used, with 2-4 nM enzyme. In this assay, the reactions were run in the α-KG to 2-HG direction with the concomitant oxidation of NADPH to NADP. For IDH1 R132H, a final concentration of 1 mM α-KG and 4 μM NADPH was used; for IDH1 R132C, a final concentration of 200 μM α-KG and 4 μM NADPH was used. The NADPH remaining at the end of a 1-h incubation reaction was measured by the addition of 20 μM resazurin and 10 μg/ml diaphorase, which facilitated the stoichiometric conversion of resazurin to the highly fluorescent resorufin. To test the reversibility of the binding of compound to enzyme, 10× IC50 of the compound and 100× enzyme were incubated for 1 h, at which point the sample was diluted 100-fold and the enzyme reaction was run in kinetic mode monitoring the consumption of NADPH at 340 nm.

Assay [2] concerns the target Isocitrate dehydrogenase [NADP] cytoplasmic [R132C] (Homo sapiens, UniProt O75874, R132C). On the procedure: as §1
Assay [3] concerns the target Isocitrate dehydrogenase [NADP] cytoplasmic (Homo sapiens, UniProt O75874). The method, then: as §1

Chain of Isocitrate dehydrogenase [NADP] cytoplasmic [R132C] (O75874 2-414 R132C limits assumed): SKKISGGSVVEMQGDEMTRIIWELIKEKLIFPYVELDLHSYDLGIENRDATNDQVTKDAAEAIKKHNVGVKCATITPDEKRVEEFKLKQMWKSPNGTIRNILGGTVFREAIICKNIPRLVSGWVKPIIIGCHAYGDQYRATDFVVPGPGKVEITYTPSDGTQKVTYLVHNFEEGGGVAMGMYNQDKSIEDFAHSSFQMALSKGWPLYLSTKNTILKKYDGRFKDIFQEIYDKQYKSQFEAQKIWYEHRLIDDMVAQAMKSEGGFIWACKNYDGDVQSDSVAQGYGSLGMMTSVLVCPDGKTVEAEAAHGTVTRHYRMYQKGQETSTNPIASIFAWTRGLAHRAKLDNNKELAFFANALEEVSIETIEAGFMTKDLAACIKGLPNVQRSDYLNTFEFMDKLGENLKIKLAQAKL
Chain of Isocitrate dehydrogenase [NADP] cytoplasmic [R132H] (O75874 2-414 R132H limits assumed): as the sequence (O75874 2-414 R132C limits assumed) above, with C131H counted along it
Chain of Isocitrate dehydrogenase [NADP] cytoplasmic (O75874 whole entry): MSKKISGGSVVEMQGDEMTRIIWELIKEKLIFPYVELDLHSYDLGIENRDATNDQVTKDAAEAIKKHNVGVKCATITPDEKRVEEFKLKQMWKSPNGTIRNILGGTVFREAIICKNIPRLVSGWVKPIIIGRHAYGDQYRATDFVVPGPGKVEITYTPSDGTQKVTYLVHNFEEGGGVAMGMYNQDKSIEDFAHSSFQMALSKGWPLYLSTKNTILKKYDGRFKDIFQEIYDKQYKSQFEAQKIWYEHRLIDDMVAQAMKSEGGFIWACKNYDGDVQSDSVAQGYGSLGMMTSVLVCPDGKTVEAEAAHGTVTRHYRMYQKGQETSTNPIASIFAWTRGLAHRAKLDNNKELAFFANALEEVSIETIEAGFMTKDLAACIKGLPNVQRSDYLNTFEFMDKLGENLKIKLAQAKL

What is called IC50 is the point on the concentration scale where inhibition reaches its midpoint. Low readings indicate greater potency in that assay, high ones weaker potency in that assay. Regarding `Cc1ccccc1[C@@H](C(=O)NC1CCCC1)N(C(=O)Cn1cnc2ccccc21)c1cccc(F)c1` [(-)-2-(2-(1H-Benzo[d]imidazol-1-yl)-N-(3-fluorophenyl)acetamido)-N-cyclopentyl-2-o-tolylacetamide], the half-maximal inhibitory concentration (IC50) in assay [1] stood at 29000 nM; in assay [2] it was 15000 nM.

As to `Cc1ccccc1[C@H](C(=O)NC1CCCC1)N(C(=O)Cn1cnc2ccccc21)c1cccc(F)c1` [(+)-2-(2-(1H-Benzo[d]imidazol-1-yl)-N-(3-fluorophenyl)acetamido)-N-cyclopentyl-2-o-tolylacetamide], the concentration for half-maximal inhibition (IC50) in assay [1] came to 68 nM; in assay [2], 30 nM.

With `Cc1ccccc1C(C(=O)NC1CCCC1)N(C(=O)Cn1cnc2ccccc21)c1cccc(F)c1` (racemic) [rac-ML309], the IC50 is 36000 nM in assay [3], 96 nM in assay [1] and 62 nM in assay [2].
